Results reported in patent US10100077B2, “6-aryl-9-glycosylpurines and use thereof” (UNIVERZITA PALACKEHO V OLOMOUCI, priority 2014, dated 2018).

Legend:
[1] = test system: detached leaf segments of Triticum aestivum cv. Hereward; assay: Senescence bioassay on wheat leaf segments (chlorophyll retention); settings: chlorophyll retention at maximum effective concentration, 96 h dark
Procedure: Seeds of winter wheat, Triticum aestivum cv. Hereward, were washed under running water for 24 hours and then sown on vermiculite soaked with Knop's solution. They were placed in the growth chamber at 25° C. with a 16/8 h light period at 50 μmol·m^−2·s^−1. After 7 days, the first leaf was fully developed and the second leaf had started to grow. A tip section of the first leaf, approximately 35 mm long, was removed from 5 seedlings and trimmed slightly to a combined weight of 100 mg. The basal ends of the five leaf tips were placed in the wells of a microtiter polystyrene plate containing 150 μL, of the tested derivative solution each. The entire plate was inserted into a plastic box lined with paper tissues soaked in distilled water to prevent leaf sections from drying out. After 96 h incubation in the dark at 25° C., the leaves were removed and chlorophyll extracted by heating at 80° C. for 10 min in 5 mL of 80% ethanol (v/v). The sample volume was then restored to 5 mL by the addition of 80% ethanol (v/v). The absorbance of the extract was recorded at 665 nm. In addition, chlorophyll extracts from fresh leaves and leaf tips incubated in deionised water were measured. The results are means of five replicates and the entire test was repeated twice. […] The compounds to be tested were dissolved in dimethylsulfoxide (DMSO) and the solution brought up to 10^−3M with distilled water. This stock solution was further diluted with the respective media used for the biotest to a concentration ranging from 10^−8M to 10^−4M. […] The activity obtained for 10^−4 M of BAP was postulated as 100%.

[2] = test system: Arabidopsis wild-type plants (Col-0) detached leaves; assay: Differential gene expression study (RNA sequencing) in senescent detached leaves; settings: 6 h, 10 μM
Procedure: Comparative gene expression analysis in Arabidopsis model was performed to gain information about the reprogramming of gene transcription when senescent leaves were treated with 6-(3-methoxybenzylamino)-9-β-D-arabinofuranosylpurine (3MeOBAPA).
For isolation of total RNA, Arabidopsis wild-type plants (Col-0) were used, which were either treated with 3MeOBAPA or left untreated. Wild-type plants were grown in soil for 30 days, and then leaves of similar size and chlorophyll content were cut and immediately used for the treatment. At least 20 detached leaves were submerged in 1×MS medium supplemented with 10 μM 3MeOBAPA. Control samples were mock treated with DMSO only. After incubation for 6 h or 48 h in the dark, detached leaves were frozen in liquid nitrogen and used for RNA isolation; 150 mg of liquid nitrogen-ground material was used per isolation. cDNA sequencing libraries were prepared with the Illumina TruSeq Stranded mRNA LT Sample Prep Kit (Illumina, San Diego, Calif.) according to standard Illumina's protocols and sequenced on HiSeq 2500 apparatus (50 bp single-end reads). […] To gain insight into the molecular mechanism of 3MeOBAPA action in Arabidopsis we decided to analyze the gene expression patterns via comparison of mock (DMSO)-treated plants with those obtained after i) short time treatment with 3MeOBAPA (6 h) and ii) long time treatment (48 h). This comparison leads to identification of group of genes with similar kinetic of expression and helps to understand possible mechanism of regulation. For data analysis, we performed ab initio method where sequencing reads were mapped to the reference genome.

SMILES: COc1cccc(CNc2ncnc3c2ncn3[C@@H]2O[C@H](CO)[C@@H](O)[C@@H]2O)c1 [6-(3-methoxybenzylamino)-9-β-D-arabinofuranosylpurine]
- activity (%) [10^−4 mol · l^−1 BAP = 100%] [1]: 118 ± 2%
- logFC AT1G02790 Polygalacturonase 4 (PGA4) [2]: 1.67
- logFC AT1G05580 Cation/H(+) exchanger 23 (CHX23) [2]: 1.26
- logFC AT1G10585 Basic helix-loop-helix (bHLH) DNA-binding superfamily protein [2]: 0.38
- logFC AT1G15540 2-oxoglutarate and Fe(II)-dependent oxygenase superfamily protein [2]: 0.57
- logFC AT1G19670 Chlorophyllase-1 (CLH1) [2]: 0.63
- logFC AT1G55560 SKU5 similar 14 (SKS14) [2]: 1.71
- logFC AT1G59860 17.6 kDa class I heat shock protein 1 (HSP17.6A) [2]: 0.48
- logFC AT1G59950 NAD(P)-linked oxidoreductase superfamily protein [2]: 1.08
- logFC AT1G75830 Defensin-like protein 1.1 (PDF1.1) [2]: 1.06
- logFC AT1G76640 Calcium-binding EF-hand family protein (CML39) [2]: 0.78
- logFC AT2G02010 Glutamate decarboxylase 4 (GAD4) [2]: 0.55
- logFC AT2G04460 Transposable element gene [2]: 1.16
- logFC AT2G18150 Peroxidase 15 (PER15) [2]: 0.68
- logFC AT2G21900 WRKY transcription factor 59 (WRKY59) [2]: 0.54
- logFC AT2G26010 Defensin-like protein 1.3 (PDF1.3) [2]: 1.47
- logFC AT2G26020 Defensin-like protein 1.2B (PDF1.2B) [2]: 1.52
- logFC AT2G26695 Ran BP2/NZF zinc finger-like superfamily protein [2]: 0.50
- logFC AT2G28210 Alpha carbonic anhydrase 2 (ATACA2) [2]: 0.85
- logFC AT2G37430 Zinc finger protein ZAT11 [2]: 0.42
- logFC AT2G39030 L-ornithine N5-acetyltransferase (NATA1) [2]: 0.56
- logFC AT2G47040 Pectin methylesterase Vanguard1 (VGD1) [2]: 2.80
- logFC AT2G47050 Plant invertase/pectin methylesterase inhibitor superfamily protein [2]: 2.31
- logFC AT3G05610 Pectinesterase/pectinesterase inhibitor 21 (PME21) [2]: 1.80
- logFC AT3G07820 Pectin lyase-like superfamily protein [2]: 2.22
- logFC AT3G09340 Transmembrane amino acid transporter family protein [2]: 0.55
- logFC AT3G11340 UDP-Glycosyltransferase superfamily protein [2]: 0.51
- logFC AT3G13400 SKU5 similar 13 (SKS13) [2]: 0.82
- logFC AT3G28153 Transposable element gene [2]: 0.92
- logFC AT3G28155 ARM repeat superfamily protein [2]: 0.59
- logFC AT3G44830 Putative phospholipid: diacylglycerol acyltransferase 2 (PDAT2) [2]: 0.38
- logFC AT3G62710 Glycosyl hydrolase family protein [2]: 1.35
- logFC AT4G01390 TRAF-like family protein [2]: 0.79
- logFC AT4G21830 Peptide methionine sulfoxide reductase B7 (MSRB7) [2]: 0.55
- logFC AT4G22030 F-box domain, cyclin-like, F-box domain, Skp2-like protein [2]: 0.41
- logFC AT4G22620 SAUR-like auxin-responsive family protein [2]: 0.46
- logFC AT4G24350 Phosphorylase superfamily protein [2]: 0.64
- logFC AT4G26010 Peroxidase 44 (PER44) [2]: 0.53
- logFC AT4G31950 Cytochrome P450 82C3 (CYP82C3) [2]: 0.37
- logFC AT4G35010 Beta-galactosidase 11 (BGAL11) [2]: 2.03
- logFC AT4G37780 Myb domain protein 87 (MYB87) [2]: 0.41
- logFC AT4G39320 Microtubule-associated protein-related [2]: 0.45
- logFC AT5G03610 GDSL esterase/lipase [2]: 0.42
- logFC AT5G12960 Putative glycosyl hydrolase [2]: 1.33
- logFC AT5G44420 Defensin-like protein 1.2A (PDF1.2A) [2]: 1.58
- logFC AT5G44430 Defensin-like protein 1.2C (PDF1.2C) [2]: 1.75
- logFC AT5G45880 Pollen Ole e 1 allergen and extensin family protein [2]: 1.45
- logFC AT5G52670 Copper transport family protein [2]: 0.57
- logFC AT5G61160 Agmatine coumaroyltransferase (ACT) [2]: 1.13
- logFC AT5G62720 Integral membrane HPP family protein [2]: 0.44
- logFC AT5G63270 RPM1-interacting protein 4 (RIN4) family protein [2]: 0.56
- number of downregulated genes (P≤0.05) ([2]; vs mock): 1119 genes
- number of upregulated genes (P≤0.05) ([2]; vs mock): 1102 genes
